From patent US4963570A, “1-(acetylaminophenyl)-2-aminopropanone derivatives and pharmaceutical compositions thereof” (Laboratoire L. Lafon, priority 1983, dated 1990)
“Also recorded” adds a separate entry of the source. Counter-ions that a name gives are not always drawn.

How the values were obtained:
[1] = system: rats; assay: overall behavior and reactivities in rats; assay type: in vivo, rat; settings: i.p., dose not stated, hydrochloride
Method: (§1) Groups of three animals are observed before and then 0.25 hour, 0.50 hour, 1 hour, 2 hours, 3 hours and 24 hours after the administration of CRL 41 224.

[2] = system: mice; assay: action on the behavioral despair; assay type: in vivo, mouse; settings: i.p., dose not stated
Text: Half an hour after they have received CRL 41 224, groups of 6 mice are placed in a beaker filled with water to a height of 6 cm. The total period of immobility between the 2nd and 6th minutes following immersion is noted.

[3] = system: mice; assay: interaction with apomorphine in mice; assay type: in vivo, mouse; settings: i.p.; dose not stated
Method: Groups of 6 mice receive CRL 41 224 0.5 hour before the subcutaneous injection of 1 or 16 mg/kg of apomorphine.

[4] = system: man; assay: clinical trials; assay type: in vivo, human; settings: man, tablets or gelatine capsules 5 to 75 mg, 1 to 3 per day
[5] = system: mice; assay: action on the spontaneous motility (actimeter); assay type: in vivo, mouse; settings: mice, i.p.; dose not stated
Method: 0.5 hour after they have received CRL 41 224, the mice (6 per dose, 12 control animals) are placed in an actimeter, where their motility is recorded for 30 minutes.

[6] = system: White New Zealand gravid female rabbits; assay: teratogenic study; assay type: in vivo, rabbit
[7] = system: CNS; assay: overall neuropsychopharmacological (CNS) profile; assay type: in vivo, mouse; rat; settings: i.p., mice and rats; dose not stated; hydrochloride
Method: The neuropsychopharmacological study of CRL 41 219 was carried out as indicated above for CRL 41 224.
The neuropsychopharmacological study of CRL 41 220 was carried out in accordance with the procedures given above for CRL 41 224.

[8] = system: rats; assay: interaction with apomorphine in rats; assay type: in vivo, rat; settings: i.p., dose not stated
Method: CRL 41 224 is administered to groups of 6 rats 0.5 hour before the subcutaneous injection of 0.5 mg/kg of apomorphine.

[9] = system: peripheral α-adrenergic stimulation; assay: signs of peripheral adrenergic stimulation; assay type: in vivo, mouse; rat; settings: i.p.; dose not stated
Method: as §1

[10] = system: mice; assay: toxicity to grouped mice compared with isolated mice; assay type: in vivo, mouse
[11] = system: mice; assay: interaction with oxotremorine; assay type: in vivo, mouse; settings: i.p.; dose not stated
Method: CRL 41 224 is administered to groups of 6 mice 0.5 hour before the intraperitoneal injection of 0.5 mg/kg of oxotremorine.

[12] = system: mice; assay: motility reduced by hypoxic aggression; assay type: in vivo, mouse; settings: i.p., dose not stated
Method: Half an hour after they have received CRL 41 224, the mice (10 per dose, 20 control animals) are subjected to acute hypobaric anoxia [pressure reduction of 600 mm Hg (i.e. about 8×10^4 Pa) in 90 seconds; release of vacuum in 45 seconds] and are then placed in an actimeter, where their motility is recorded for 10 minutes.

[13] = system: mice; assay: motility reduced by habituation to the enclosure; assay type: in vivo, mouse; settings: i.p., dose not stated
Method: After they have stayed in the actimeters for 18 hours, the mice (6 per dose, 12 control animals) receive CRL 41 224. They are immediately returned to their respective enclosures and, half an hour later, their motility is recorded for 30 minutes.

[14] = system: mice; assay: overall behavior and reactivities in mice; assay type: in vivo, mouse; settings: mice, i.p.; dose not stated
Method: as §1

[15] = system: male mice; assay: interaction with proadifen: motility; assay type: in vivo, mouse
Method: (§2) Two series of experiments were carried out. In the first one, male mice (12 per dose, 12 control animals) were administered per I.P. route (i) with proadifen (75 mg/kg) at T-3 h, then (ii) with CRL 41 152 at T-0.5 h. At T=0 the mice were placed in actimeters, where their motility was recoded for 0.5 h. In the second one male mice (12 per dose, 12 control animals) were administered with proadifen and CRL 41 152 as indicated hereinabove, then subcutaneously with apomorphine (16 mg/kg) at T=0 in order to appreciate the potential variation of the hypothermia induced by apomorphine.
(§3) In these two series CRL 41 152, in solution in distilled water, was administered per I.P. route to male mice in a volume of 20 ml/kg.

[16] = system: mice; assay: interaction with barbital; assay type: in vivo, mouse; settings: i.p.; dose not stated
Method: Half an hour after the administration of CRL 41 224, groups of 10 mice receive an intraperitoneal injection of barbital (220 mg/kg).

[17] = system: mice; assay: four plate test, traction and electric shock; assay type: in vivo, mouse; settings: i.p.; dose not stated
Method: The test is performed on groups of 10 mice 30 minutes after the administration of CRL 41 224.

[18] = system: rats; assay: action on stereotypies in rats (α-methyltyrosine, haloperidol, reserpine)
[19] = system: male mice; assay: interaction with proadifen: hypothermia induced by apomorphine; assay type: in vivo, mouse
Method: as §2, §3

[20] = system: mice; assay: interaction with barbital; assay type: in vivo, mouse; settings: gastric route
[21] = system: mice; assay: interaction with reserpine; assay type: in vivo, mouse; settings: i.p.; dose not stated
Method: Four hours after the intraperitoneal injection of 2.5 mg/kg of reserpine, groups of 6 mice receive CRL 41 224.

[22] = water solubility of the product; assay type: physicochemical
Method: The 39 g of 1-(4-acetylaminophenyl)-2-chloropropanone thus obtained are dissolved in 200 ml of isopropylamine. The resulting reaction medium is heated under reflux for 6 hours. The excess isopropylamine is evaporated off in vacuo. The evaporation residue, which is in the form of a viscous oil, is taken up with 200 ml of anhydrous ethanol and the hydrochloride is recipitated by means of a stream of HCl gas.

[23] = system: rats; assay: interaction with amphetamine; assay type: in vivo, rat; settings: rats, i.p.; dose not stated
Method: Amphetamine (2 mg/kg) is injected intraperitoneally into groups of 6 rats 30 minutes after the administration of CRL 41 224.

[24] = system: male mice; assay: influence of catecholamines on hyperactivity in mice; assay type: in vivo, mouse
Method: A further series of assays was carried out on mice according to the teaching of S. L. HANDLEY et al. "Influences of catecholamines on dexamphetamine, induced changes in locomotor activity", Psychopharmacology 58, 283-288 (1978), in order to observe a potential influence of dopamine or moradrenaline on the hyperactivity induced by CRL 41 152.
After a habituation period of 1.5 h to the actimeters, male mice (grouped into batches of 10 animals each and a control batch of 20 animals) were administered (under slight anesthesia with ether) per intraventriculocerebral injection (i.e. I.V.C. route) with (i) either 10 μg of noradrenaline, or 10 μg of dopamine or 10 μl (0.5 μl/second) of saline solution, then (ii) 5 minutes later, with CRL 41 152 (in solution in distilled water) per I.P. route in a volume of 20 ml/kg, immediately before replacing the mice in the actimeters vherein their motility was recorded for 1 hour by measuring the number of crossed rays per period of 5 minutes).
Batches receiving CRL 41 152 per I.P. route with noradreanaline or dopamine per I.V.C. route were compared with (i) the control batch receiving the saline solution per I.V.C. route then distilled water per I.P. route, and (ii) batches receiving only noradrenaline, dopamine (per I.V.C. route) or CRL 41 152 (per I.P. route).

[25] = proadifen 75 mg/kg i.p. then CRL 41 152

## CC(=O)Nc1ccc(C(=O)C(C)NC(C)C)cc1 (centres unmarked) [CRL 41 152, 1-(4-acetylaminophenyl)-2-isopropylaminopropanone hydrochloride]
[1]
  stereotype movements in rats: stereotype movements in rats; also recorded: induces stereotype movements
[2]
  period of immobility or "despair": a reduction in the immobility
[3]
  hypothermia induced by apomorphine: antagonism of the hypothermia induced by apomorphine
[4]
  clinical result: depressions, hypersomnia and GELINEAU's disease: excellent drug for treating depressions in man as well as hypersomnia and GELINEAU's disease
[5]
  spontaneous motility / motor activity: an increase in the spontaneous motility in mice
[6]
  teratogenic effect: does not exhibit any harmful teratogenic effect
[7]
  overall action on the CNS: stimulant effects; also recorded: antidepressant effects
[8]
  stereotypies induced by apomorphine: potentiation of the stereotypies induced by apomorphine
[9]
  exophthalmos: absent
  mydriasis: mydriasis
  peripheral adrenergic stimulation, overall: effects which may reflect peripheral adrenergic stimulation
  salivation: absent
[10]
  toxicity to grouped mice compared with isolated mice: do not increase the toxicity to grouped mice
[11]
  hypothermia induced by oxotremorine: antagonism of the hypothermia induced by apomorphine, oxotremorine
  trembling caused by oxotremorine: antagonism of the trembling caused by oxotremorine
[12]
  motor recovery after hypoxic aggression: an improvement in the motor recovery in mice after acute hypoxia
[13]
  motor activity after habituation to the enclosure: a resumption in the motor activity of mice accustomed to their enclosure
[14]
  excitation in mice: excitation with hyperreactivity in mice
[15]; i.p., administered alone
  spontaneous motility: increases the spontaneous motility in mice
[15]; [25]
  effect of proadifen on the induced hypermotility: does not cause a distinct reduction of the hypermotility
[16]
  sleep induced by barbital: antagonism of the sleep induced by barbital
[17]
  convulsant effects of electric shock: anticonvulsant effects
[18]; haloperidol 0.25 mg/kg i.p. 0.5 h before
  effect of haloperidol on induced stereotypies: almost totally prevents the appearance of stereotypies
[18]; haloperidol 0.5 mg/kg i.p. 0.5 h before
  effect of haloperidol on induced stereotypies: totally inhibits the said stereotypies
[18]; i.p.
  suppression of induced stereotype movements by prior injection of alpha-methyltyrosine: not suppressed
[18]; reserpine 4 mg/kg i.p. 24 hours before
  effect of reserpine on induced stereotypies: only a moderate reduction of the stereotypies
[18]; α-methyltyrosine 128 mg/kg i.p. 2.5 h before 30 mg/kg i.p. CRL 41 152
  inhibition by α-methyltyrosine of the induced stereotypies: 4%
[19]; i.p., 8 and especially 32 mg/kg, apomorphine 16 mg/kg s.c.
  hypothermia induced by apomorphine: antagonism vis-a-vis the hypothermia induced by apomorphine
[19]; i.p., apomorphine 16 mg/kg s.c.
  righting behaviour and stereotypies induced by apomorphine: Neither proadifen, nor CRL 41 152, nor their combination modify the righting behaviour
[19]; [25]
  effect of proadifen on antagonism vis-a-vis the hypothermic effect of apomorphine: does block the antagonism
[20]
  interaction with barbital, kinetic study: clearly showed the interest of CRL 41 152 as awakening agent
[21]
  hypothermia induced by reserpine: antagonism of the hypothermia induced by apomorphine, oxotremorine or reserpine
  ptosis induced by reserpine: antagonism of the ptosis induced by reserpine
[22]
  water solubility: very water-soluble
[23]
  stereotypies induced by amphetamine: potentiation of the stereotypies induced by apomorphine or amphetamine
[24]; dopamine 10 μg I.V.C.
  effect of prior dopamine on the motor activity caused: did not modify the motor activity caused by CRL 41 152
[24]; i.p., 8 mg/kg, one-hour recording
  motor activity: distinct statistically significant increase in motor activity
[24]; noradrenaline 10 μg I.V.C.
  effect of prior noradrenaline on the motor stimulant effect: distinct statistically significant decrease in the motor stimulant effect
